Data published in the supplement of paper PMC4932681.

Experiments:
Test in all cases: viability inhibition at highest dose (% inhibition); higher = more growth inhibition
BT-474 = details: 72 h
Experimental: (§1)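 Percent inhibition of viability (CellTiter-Glo, 72 h) at the highest tested concentration (D5), normalised to DMSO (0%) and 100 µM benzethonium chloride (100%). Resistant lines and the 'in 1µM tamoxifen' arms were tested in 1 µM 4-OH-tamoxifen.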

MCF-7 = details: 72 h
Experimental: as §1

BT-474 Tam2 = details: 4-OH-tamoxifen in medium 1 µM; 72 h
Experimental: as §1

ZR-75-1 Tam1 = details: 4-OH-tamoxifen in medium 1 µM; 72 h
Experimental: as §1

T-47D Tam1 = details: 4-OH-tamoxifen in medium 1 µM; 72 h
Experimental: as §1

BT-474 Tam1 = details: 4-OH-tamoxifen in medium 1 µM; 72 h
Experimental: as §1

T-47D Tam2 = details: 4-OH-tamoxifen in medium 1 µM; 72 h
Experimental: as §1

T-47D = details: 72 h
Experimental: as §1

ZR-75-1 Tam2 = details: 4-OH-tamoxifen in medium 1 µM; 72 h
Experimental: as §1

MCF-7 Tam1 = details: 4-OH-tamoxifen in medium 1 µM; 72 h
Experimental: as §1

ZR-75-1 = details: 72 h
Experimental: as §1

SMILES	viability inhibition at highest dose (BT-474; 4-OH-tamoxifen in medium 0 µM)	viability inhibition at highest dose (BT-474; 4-OH-tamoxifen in medium 1 µM)	viability inhibition at highest dose (MCF-7; 4-OH-tamoxifen in medium 0 µM)	viability inhibition at highest dose (MCF-7; 4-OH-tamoxifen in medium 1 µM)	viability inhibition at highest dose (BT-474 Tam2)	viability inhibition at highest dose (ZR-75-1 Tam1)	viability inhibition at highest dose (T-47D Tam1)	viability inhibition at highest dose (BT-474 Tam1)	viability inhibition at highest dose (T-47D Tam2)	viability inhibition at highest dose (T-47D; 4-OH-tamoxifen in medium 0 µM)	viability inhibition at highest dose (T-47D; 4-OH-tamoxifen in medium 1 µM)	viability inhibition at highest dose (ZR-75-1 Tam2)	viability inhibition at highest dose (MCF-7 Tam1)	viability inhibition at highest dose (ZR-75-1; 4-OH-tamoxifen in medium 0 µM)	viability inhibition at highest dose (ZR-75-1; 4-OH-tamoxifen in medium 1 µM)
CCOc1cc2ncc(C#N)c(Nc3ccc(OCc4ccccn4)c(Cl)c3)c2cc1NC(=O)/C=C/CN(C)C [Neratinib] (drug 1000 nM)	83.2	95	-5.52	24.9	97.1	2.29	32.5	97.4	32.5	19	1.93	9.49	8.88	-13	9.01
Cc1cn(-c2cc(NC(=O)c3ccc(C)c(Nc4nccc(-c5cccnc5)n4)c3)cc(C(F)(F)F)c2)cn1 [Nilotinib] (drug 10000 nM)	-6.7	1.42	5.79	5.88	1.02	2.47	-0.169	22.9	2.08	-17.5	-20.8	-2.53	-8.69	-11.8	-6.98
CC1(C)NC(=O)N(c2ccc([N+](=O)[O-])c(C(F)(F)F)c2)C1=O [Nilutamide] (drug 10000 nM)	-2.3	-13.3	-15.4	15.9	10.7	2.7	0.496	-0.747	6	-3.55	-11.8	4.62	-1.08	-16.5	-4.81
COC(=O)c1ccc2c(c1)NC(=O)/C2=C(\Nc1ccc(N(C)C(=O)CN2CCN(C)CC2)cc1)c1ccccc1 [Nintedanib (BIBF 1120)] (drug 10000 nM)	5.93	24.8	12.4	3.6	-5.56	7.5	-2.42	30.7	5.71	-18.3	-16.7	-3.8	-3.72	-10.8	-9.4
COc1ccc(C2=N[C@@H](c3ccc(Cl)cc3)[C@@H](c3ccc(Cl)cc3)N2C(=O)N2CCNC(=O)C2)c(OC(C)C)c1 [Nutlin-3] (drug 10000 nM)	-7.59	11.2	28.5	45.2	29.7	31.8	15.8	33.4	20.4	1.78	1.4	42.8	16.7	36	29.7
COc1cccc2cc(-c3nc([C@H]4CC[C@H](C(=O)O)CC4)n4ncnc(N)c34)[nH]c12 [OSI-027] (drug 10000 nM)	35.5	47.5	44.4	43.9	35.6	52.6	55.6	38.1	38	62.6	42.7	65.5	30.1	60.5	52.9
COC1=CC(c2cc3ccccc3[nH]2)=N/C1=C\c1[nH]c(C)cc1C [Obatoclax (GX15-070)] (drug 10000 nM)	68.9	18.9	45.6	75.8	86.7	23.7	67.3	36.3	36.8	47	44.1	50.8	51.1	32.5	31.2
